Results reported in patent US9101769B2, “High density epidural stimulation for facilitation of locomotion, posture, voluntary movement, and recovery of autonomic, sexual, vasomotor, and cognitive function after neurological injury” (The Regents of the University of California, priority 2011, dated 2015).

Columns and labels:
[1] = system: rat with complete mid-thoracic spinal cord transection; assay: Epidural stimulation coupled with drug therapy, locomotor behavior after complete spinal cord transection (FIG. 1); type: in vivo
Method: FIG. 1 summarizes recent experiments in rats that were carried out to assess the effectiveness of epidural stimulation coupled with combined drug therapy in the treatment of complete spinal cord injuries. The combination of quipazine and 8-0HDPAT with simultaneous epidural stimulation at spinal sites L2 and S1 results in robust coordinated stepping as early as one week after a complete spinal cord transection. Locomotor behavior observed from a typical rat before the injury and one week after a complete mid-thoracic spinal cord transection. The amount of body weight support provided to the rat is shown in red. One week post-injury, no spontaneous stepping activity is observed. […] Sol, soleus; TA, tibialis anterior; MTP, metatarsal-phalangeal.
FIG. 1 summarizes experiments in rats that were carried out to assess the effectiveness of epidural stimulation coupled with combined drug therapy in acute treatment of complete spinal cord injury.

[2] = system: stepping in animals; assay: Pharmacological facilitation of stepping, optimal concentration of illustrative agents (Table 1); type: in vivo
Method: In certain embodiments, the methods described herein are used in conjunction with various pharmacological agents. […] These agents can be used in combination with epidural stimulation and physical therapy as described above.
In certain embodiments, the drugs are administered systemically, while in other embodiments, the drugs are administered locally, e.g., to particular regions of the spinal cord. Drugs that modulate the excitability of the spinal neuromotor networks are combinations of noradrenergic, serotonergic, GABAergic, and glycinergic receptor agonists and antagonists. Illustrative pharmacological agents include, but are not limited to agonists and antagonists to one or more combinations of serotonergic: 5-HT1A, 5-HT2A, 5-HT3, and 5HT7 receptors; to noradrenergic alpha1 and 2 receptors; and to dopaminergic D1 and D2 receptors (see, e.g., Table 1).

[3] = one week after complete mid-thoracic spinal cord transection, drug administration without epidural stimulation
[4] = one week post-injury, epidural stimulation at L2 plus S1 with quipazine plus 8-OHDPAT together
[5] = one week post-injury, epidural stimulation simultaneously at L2 plus S1 in combination with either quipazine or 8-OHDPAT

CCCN(CCC)C1CCc2cccc(O)c2C1 (stereo not drawn) [8-OHDPAT]
Locomotor behavior (stepping) [1, 3]: erratic movements
Locomotor behavior (stepping) [1, 4]: coordinated, plantar stepping with features resembling those observed pre-lesion
Locomotor behavior (stepping) [1, 5]: enables plantar stepping
Optimal Concentration ([2]; route S.C.): 0.05 mg/kg

Cc1nccn1CC1CCc2c(c3ccccc3n2C)C1=O (stereo not drawn) [Ondanesetron]
Optimal Concentration ([2]; route I.P.): 3 mg/kg

c1ccc2nc(N3CCNCC3)ccc2c1 [Quipazine]
Locomotor behavior (stepping) [1, 3]: erratic movements
Locomotor behavior (stepping) [1, 4]: coordinated, plantar stepping with features resembling those observed pre-lesion
Locomotor behavior (stepping) [1, 5]: enables plantar stepping

CC1CCN(CC[C@H]2CCCN2S(=O)(=O)c2cccc(O)c2)CC1 [SB 269970]
Optimal Concentration ([2]; route I.P.): 7 mg/kg

Oc1cc2c(c(Cl)c1O)CCNCC2c1ccccc1 (stereo not drawn) [SKF-81297]
Optimal Concentration ([2]; route I.P.): 0.2 mg/kg

Cl.NC1CCN(c2cccc(Cl)n2)CC1 [SR 57227A]
Optimal Concentration ([2]; route I.P.): 1.5 mg/kg

COc1ccccc1N1CCN(CCN(C(=O)C2CCCCC2)c2ccccn2)CC1 [Way 100.635]
Optimal Concentration ([2]; route I.P.): 0.5 mg/kg
